Test results as given in US7157480B2, “Use of pramipexole to treat amyotrophic lateral sclerosis” (priority 2001, dated 2007).
Like-named read-outs stand apart in the source and are kept apart here.

Experiments:
caspase 9 = type: cell-based, human
Experimental: (§1) SH-SY5Y human neuroblastoma cells were obtained from the American Tissue Culture Collection (www.atcc.org) and maintained in culture in a replicating state. For caspase assays and cytochrome C release studies they were grown in T75 flasks with DMEM/high glucose containing 10% fetal bovine serum, antibiotic/antimicotic (100 IU/ml of penicillin, 100 μg/ml of streptomycin sulfate, 0.25 μg/ml of amphotericin B) and 50 μg/ml of uridine and 100 μg/ml of pyruvate in a 5% CO2 atmosphere at 37° C. to approximately full confluence (2×10^7 cell/flask). They were then incubated with 5 mM methylpyridinium iodide (MPP+; Sigma; www.sigma-aldrich.com) or 100 μM 25–35 or 35–25 beta amyioid peptides (Bachem; www.bachem.com) for varying times, then harvested. For cell death studies, the cells were plated into 96 well black-bottom plates and grown for 24 hours in DMEM media before being exposed to toxin.
(§2) After exposure to MPP+ or beta amyloid peptide, cells were collected in PBS and centrifuged at 450×g for 6 minutes at 4° C. Cell pellets were resuspended in a hypotonic cell lysis buffer [25 mM HEPES, 5 mM MgCl2, 5 mM EDTA, […] and protease inhibitor cocktail (Sigma Chemical)] at a concentration of 2×10^7 cells/100 μl of lysis buffer. Lysates were subjected to four cycles of freezing and thawing. Cell lysates were then centrifuged at 16,000×g for 30 minutes at 4° C. The supernatant fractions were collected, and protein content was measured by Lowry assay (BioRad). 100 μg of protein was used to measure caspase activity in 96 well plates and was assayed in quadruplicate. The activity was measured using the assay buffer and the protocol provided by the manufacturers. (Biomol, caspase 3; Promega, caspases 3 and 9). […] Chromogen absorbance (p-NA) was measured on an OptiMax plate reader or chromogen fluorescence (AMC) on a SpectraMax Gemini plate reader at zero time and after 30 minutes of incubation at 37 degrees to estimate relative caspase activities. Chromogen signal at zero time was subtracted from the readings at 30 minutes.
(§3) R(+) and S(−) PPX (gifts of Pharmacia Corporation) were obtained as their dihydrochloride salts and dissolved directly into culture media. Bongkreckic acid, an antagonist of the ATP binding site on the adenine nucleotide translocator, was provided as a solution in 1M NH4OH. Aristolochic acid (sodium salt), a phospholipase A2 inhibitor, was obtained from Sigma Chemical Co. In the caspase experiments, drugs were added 1 hour before MPP+ or beta amyloid peptide. In the calcein/cell death experiments, drugs were added 4 hours before MPP+.

caspase 3 [1] = type: cell-based, human
Experimental: as §1, §2, §3

oxidative stress [2] = conditions: 12 SALS subjects
Experimental: The present study was conducted in two phases. […] These participants underwent aspirin loading with subsequent 2,3-DHBA analysis. After receiving 1.3 grams of aspirin po, blood was drawn 2, 3, and 4 hours later. Serum was separated, frozen and stored at −80 degrees. Aliquots of serum were subsequently coded and blinded for 2,3-DHBA and salicylate assays.
The subjects received 1.3 grams of aspirin po, and blood was drawn 3 hours later. Following acquisition of these baseline samples, SALS participants began pramipexole therapy. Dosage escalation was performed similar to PD patients with an attempt made to reach 1.5 mg t.i.d.-q.i.d. as the final dose, following a 7 week titration. After each participant was on his/her highest pramipexole dose for three weeks, the aspirin loading study was performed once again. […] Each participant was then offered the opportunity to continue with pramipexole treatment.
Preparation of serum: 0.9 ml of serum at 4° C. was mixed with 0.2 ml of 1 M perchloric acid and centrifuged at 15,000 rpm for 10 minutes in a refrigerated microcentrifuge.
Assay for 2,3-DHBA: 20 uL of supernatant were injected in duplicate onto a C18 “Catecholamine” Adsorbosphere column (Alltech) perfused at 0.6 ml/min with buffer consisting of 125 ml/L acetonitrile, 1.5 gn/L of sodium heptane sulfonate, 3 ml/L triethylamine, 100 mg/L of Na2 EDTA with final pH adjusted to 2.8 with phosphoric acid. Detection utilized a CouloChem II flow-through electrochemical detector (ESA, with the following settings: guard cell=+600 mV; E1=−100 mV; E2=+400 mV). 2,3-DHBA eluted at 10–10.5 minutes under these conditions.
Assay for salicylate: 50 uL of supernatant were injected in duplicate onto a C8 Kromosil HPLC column (Alltech) perfused at 0.8–1.0 ml/min with 70% methanol/30% water/0.5% trifluoroacetic acid. Salicylate eluted at 6–7 minutes under these conditions and was detected by ultraviolet absorption at 315 nm.

[3] = ALS subjects who completed dose escalation, 3–6 mg per day
Experimental: Following acquisition of these baseline samples, SALS participants began pramipexole therapy. Dosage escalation was performed similar to PD patients with an attempt made to reach 1.5 mg t.i.d.-q.i.d. as the final dose, following a 7 week titration.

[4] = tested on: D2 family dopamine receptors; conditions: cited from earlier work
caspase 3 [5] = conditions: SH-SY5Y
Experimental: as §1, with “For cell death studies, the cells were plated into 96 well black-bottom plates and grown for 24 hours in DMEM media before being exposed to toxin.” left out
After exposure to MPP+ or beta amyloid peptide, cells were collected in PBS and centrifuged at 450×g for 6 minutes at 4° C. […] The supernatant fractions were collected, and protein content was measured by Lowry assay (BioRad). […] The activity was measured using the assay buffer and the protocol provided by the manufacturers. […] Chromogen absorbance (p-NA) was measured on an OptiMax plate reader or chromogen fluorescence (AMC) on a SpectraMax Gemini plate reader at zero time and after 30 minutes of incubation at 37 degrees to estimate relative caspase activities. Chromogen signal at zero time was subtracted from the readings at 30 minutes. […]

SH-SY5Y cells = type: cell-based, human
Experimental: as §1
Cell death was estimated by measuring loss of calcein retention with the “Live-Dead” assay (Molecular Probes; www.molecularprobes.com) in cells grown in 96 well plates and incubated with calcein-AM, according to manufacturer's instructions. Calcein signals were assayed in a SpectraMax Gemini adjustable fluorescent plate reader (Molecular Devices). Calcein fluorescence from cells preincubated with methanol was subtracted from all readings as background. Each assay was performed with 8 wells/condition, which were averaged. 3–8 independent experiments were performed to evaluate a broad range of concentrations of S(−) and R(+) PPX in this paradigm.
as §3

[6] = relative to S(−) pramipexole; cited from earlier work
[7] = 8 week toxicology study in mice, pathology of major organs; type: in vivo; conditions: drinking water, 8 weeks
Experimental: Toxicology studies have also been conducted and no evidence of adverse effects were detected. In particular, an 8 week toxicology study was performed in the mice given R(+) PPX in their drinking water.

oxidative stress [8] = assay: MPTP-induced forebrain oxidative stress (2,3-DHBA) in mice; type: in vivo, C57BL/6 mice; conditions: MPTP 30 mg/kg s.c.
Experimental: Male C57BL/6 mice received daily R(+) pramipexole dihydrochloride in drinking water for 8 weeks at doses calculated to provide 0, 10, 30 or 100 mg/kg/day. On the day of the study the mice were injected with 30 mg/kg s.c. of the neurotoxin N-methyl-4-phenyl-1,2,3,6-tetrahydropyridine (MPTP) to increase oxidative stress in the brain. One hour later the mice were injected with 100 mg/kg i.p. of sodium salicylate. One hour after salicylate injection the mice were killed and forebrains analyzed for 2,3-dihydroxybenzoic acid (2,3-DHBA) content.

For `COc1cccc2c1cc([N+](=O)[O-])c1c(C(=O)O)cc3c(c12)OCO3` [aristolochic acid, Aristolochic acid], the “MPP+-induced increases in caspase 9 activity” value (from here on “MPP+-induced increases”) (caspase 9; SH-SY5Y, 5 mM MPP+ 8 hr, 25 μM aristolochic acid) was “blocked” and the “MPP+-induced caspase 3 activation” value (caspase 3 [1]; SH-SY5Y, 5 mM MPP+ 24 hours, 25 μM aristolochic acid, p<0.05 vs MPP+) was “prevented increases”.

For `CO[C@H](C/C=C\C=C\CC/C=C/C[C@H](C)/C=C/C(=C\C(=O)O)CC(=O)O)/C(C)=C\C=C(/C)C(=O)O` [bongkreckic acid, Bongkreckic acid], the “MPP+-induced increases” value (caspase 9; SH-SY5Y, 5 mM MPP+ 8 hr, 250 μM bongkreckic acid) was “blocked” and the “MPP+-induced caspase 3 activation” value (caspase 3 [1]; SH-SY5Y, 5 mM MPP+ 24 hours, 250 μM bongkreckic acid, p<0.05 vs MPP+) was “blocked”.

With `CCCN[C@H]1CCc2nc(N)sc2C1` [S(−) PPX, S(−)-2-amino-4,5,6,7-tetrahydro-6-propylaminobenzathiazole] the “mean reduction of serum 2,3-DHBA concentration” value (oxidative stress [2]; 3–6 mg per day oral, pre vs post treatment, 3 hours after 1.3 grams aspirin, p=0.015) was “about 45%”, the “average reduction of serum 2,3-DHBA normalized to salicylate levels” value (oxidative stress [2]; 3–6 mg per day oral, pre vs post treatment, p=0.010) was 59% and the “individual serum levels of 2,3-DHBA pre vs post treatment” value (oxidative stress [2]; without exception) was “reduced”. For the same compound, the tolerability [3] was “well tolerated”, the “MPP+-induced increases” value (caspase 9) was “blocked” and the “MPP+-induced caspase 3 activation” value (caspase 3 [1]) was “suppressed”. For the same compound, the dopamine agonist activity [4] was “potent agonist”, the “reduction of the increases in caspase 3 activity following BA 25–35 peptide” value (caspase 3 [5]; 100 μM beta amyloid 25–35) was “about 70%” and the “effect on caspase 3 activity by itself” value (caspase 3 [5]; drug alone without toxin) was “no suppressive effect”. The “calcein retention in the presence of MPP+, enantiomer comparison” value (SH-SY5Y cells) was “greater calcein retention than R(+) PPX” and the “calcein uptake after MPP+” value (SH-SY5Y cells) was “substantially restored”.

For `CCCN[C@@H]1CCc2nc(N)sc2C1.Cl.Cl` [R(+) PPX, R(+)-2-amino-4,5,6,7-tetrahydro-6-propylaminobenzathiazole dihydrochloride], the “potency to produce the side effects that result from the use of S(−) pramipexole” value [6] is given as ≤ 1%, the “MPP+-induced increases” value (caspase 9; SH-SY5Y, 5 mM MPP+ 8 hr, 1 mM PPX) is given as “blocked” and the “MPP+-induced caspase 3 activation” value (caspase 3 [1]; SH-SY5Y, 5 mM MPP+ 24 hours, 1 mM PPX added 1 hour before, p<0.05 vs MPP+) is given as “suppressed”. The “pathological examination of all major organs” value [7] was “no lesions were found”, the dopamine agonist activity [4] was “very little dopamine agonist activity” and the “forebrain oxidative stress produced by MPTP (2,3-DHBA)” value (oxidative stress [8]; 30 mg/kg/day in drinking water for 8 weeks) was “significantly reduced”. The “forebrain oxidative stress produced by MPTP (2,3-DHBA)” value (oxidative stress [8]; 100 mg/kg/day in drinking water for 8 weeks) was “significantly reduced”, the “calcein retention in the presence of MPP+, enantiomer comparison” value (SH-SY5Y cells; 3 nM PPX, 5 mM MPP+ 24 hours, p=0.035) was “greater calcein retention than S(−) PPX” and the “calcein uptake after MPP+” value (SH-SY5Y cells; SH-SY5Y, 5 mM MPP+ 24 hours, 30 nM PPX added 4 hours before, effect retained through 30 μM) was “substantially restored”.

With `C[n+]1ccc(-c2ccccc2)cc1.[I-]` [MPP+, methylpyridinium iodide] the “increase of caspase 3 activity” value (caspase 3 [1]; SH-SY5Y, 5 mM MPP+, by 24 hours) was “about 2 fold” and the “reduction of calcein uptake” value (SH-SY5Y cells; SH-SY5Y, 5 mM MPP+ alone, 24 hours) was “about 60%”.
